Laboratory results reported in US20250074906A1, “AZAINDOLE DERIVATIVE THAT INHIBITS H-PGDS” (SATO PHARMACEUTICAL CO., LTD., priority 2021, published 2025).

Molecular target: T1, Recombinant human H-PGDS (Homo sapiens, UniProt O60760)
T1 construct: made in house; host or cells: E. coli
Assay: H-PGDS inhibitory activity (prostaglandin D2 production measured by LC-MS/MS)
Format: biochemical
Conditions: recombinant human H-PGDS 1.0 nM expressed in E. coli; prostaglandin H2 25 μM; 15 min preincubation and 1 min reaction on ice
Method: The H-PGDS inhibitory activity of each Example compound was measured according to the method described in WO 2007/041634.
Recombinant human H-PGDS (final concentration: 1.0 nM) expressed in E. coli was mixed in an assay buffer containing 20 mM Tris-HCl (pH 8.0), 2 mM magnesium chloride, 2 mM reduced glutathione, and 0.5 mg/mL γ-globulin, and 150 μL of the mixture was dispensed into an 8-strip PCR tube (BM Equipment Co., Ltd). Test compounds (Example compounds) (16.5 μL) at various concentrations dissolved in DMSO were added and the mixture was preincubated for 15 minutes on ice.
Prostaglandin H2 (final concentration: 25 μM) (Cayman Chemical) was dispensed into another 8-strip PCR tube, and the solvent was dried and solidified using a vacuum concentrator (Thermo Fisher Scientific). To the dried and solidified prostaglandin H2 was added 50 μL of the assay buffer containing H-PGDS and each test compound after the preincubation, and the mixture was reacted on ice for 1 minute. 40 μL of this mixture was added to 40 μL of a stop solution (50 mM aqueous citric acid solution containing iron chloride at a final concentration of 4 mg/mL) to stop the reaction. Then, the reaction solution was deproteinized, added to a 96 square deep well plate (SHONANMARUHACHI STEC Co., Ltd.), and the prostaglandin D2 concentration in the reaction solution was measured by LC-MS/MS. ACQUITY (registered trademark) TQD (Waters) was used as a measuring instrument.
Prostaglandin D2 production activity (%) in the group with each test compound when a value obtained by subtracting the amount of production of prostaglandin D2 in the group without enzyme, which is non-specific production of prostaglandin D2, from the amount of production of prostaglandin D2 in the group without test compound (DMSO-addition group) in each 8-strip PCR tube is 100% was calculated. From the calculated activity value, the test compound concentration that inhibits prostaglandin D2 production by 50% (IC50) was determined.

T1 sequence (O60760 whole entry): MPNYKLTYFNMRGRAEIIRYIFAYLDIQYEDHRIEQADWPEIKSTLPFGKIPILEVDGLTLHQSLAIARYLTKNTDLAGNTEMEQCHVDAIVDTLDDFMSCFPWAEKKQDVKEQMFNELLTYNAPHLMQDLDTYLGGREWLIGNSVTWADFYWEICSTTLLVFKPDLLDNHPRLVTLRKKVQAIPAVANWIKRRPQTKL

SMILES	IC50 [nM]
Cc1cnc(-c2ccc(C(=O)NC34CCC(O)(CC3)CC4)cc2)c2cc[nH]c12 [Example 1, N-(4-hydroxybicyclo[2.2.2]octan-1-yl)-4-(7-methyl-1H-pyrrolo[3,2-c]pyridin-4-yl)benzamide]	0.99
Cc1cnc(-c2ccc(C(=O)N[C@H]3CC[C@](C)(O)CC3)cc2)c2cc[nH]c12 [Example 2, N-(trans-4-hydroxy-4-methylcyclohexyl)-4-(7-methyl-1H-pyrrolo[3,2-c]pyridin-4-yl)benzamide]	1.3
Cc1cnc(-c2ccc(C(=O)N[C@H]3CC[C@H](C4(O)CC4)CC3)cc2)c2cc[nH]c12 [Example 3, N-[trans-4-(1-hydroxycyclopropyl)cyclohexyl]-4-(7-methyl-1H-pyrrolo[3,2-c]pyridin-4-yl)benzamide]	1.9
Cc1cnc(-c2ccc(C(=O)N[C@H]3CC[C@H](OCC(C)(C)O)CC3)cc2)c2cc[nH]c12 [Example 4, N-[trans-4-(2-hydroxy-2-methylpropoxy)cyclohexyl]-4-(7-methyl-1H-pyrrolo[3,2-c]pyridin-4-yl)benzamide]	1.5
C[C@]1(O)CC[C@H](NC(=O)c2ccc(-c3nccc4[nH]ccc34)c(F)c2)CC1 [Example 5, 3-fluoro-N-(trans-4-hydroxy-4-methylcyclohexyl)-4-(1H-pyrrolo[3,2-c]pyridin-4-yl)benzamide]	1
O=C(NC12CCC(O)(CC1)CC2)c1ccc(-c2nccc3[nH]ccc23)c(F)c1 [Example 6, 3-fluoro-N-(4-hydroxybicyclo[2.2.2]octan-1-yl)-4-(1H-pyrrolo[3,2-c]pyridin-4-yl)benzamide]	1.1
N#CC12CCC(NC(=O)c3ccc(-c4nccc5[nH]ccc45)c(F)c3)(CC1)CC2 [Example 7, N-(4-cyanobicyclo[2.2.2]octan-1-yl)-3-fluoro-4-(1H-pyrrolo[3,2-c]pyridin-4-yl)benzamide]	1.3
NC(=O)C12CCC(NC(=O)c3ccc(-c4nccc5[nH]ccc45)c(F)c3)(CC1)CC2 [Example 8, 4-[3-fluoro-4-(1H-pyrrolo[3,2-c]pyridin-4-yl)benzamide]bicyclo[2.2.2]octane-1-carboxamide]	0.75
CC(C)(O)CO[C@H]1CC[C@H](NC(=O)c2ccc(-c3nccc4[nH]ccc34)c(F)c2)CC1 [Example 9, 3-fluoro-N-[trans-4-(2-hydroxy-2-methylpropoxy)cyclohexyl]-4-(1H-pyrrolo[3,2-c]pyridin-4-yl)benzamide]	1.2
O=C(NC12CCC(O)(CC1)C2)c1ccc(-c2nccc3[nH]ccc23)c(F)c1 [Example 10, 3-fluoro-N-(4-hydroxybicyclo[2.2.1]heptan-1-yl)-4-(1H-pyrrolo[3,2-c]pyridin-4-yl)benzamide]	1
O=C(N[C@H]1CC[C@H](C2(O)CC2)CC1)c1ccc(-c2nccc3[nH]ccc23)c(F)c1 [Example 11, 3-fluoro-N-[trans-4-(1-hydroxycyclopropyl)cyclohexyl]-4-(1H-pyrrolo[3,2-c]pyridin-4-yl)benzamide]	3.9
O=C(N[C@H]1CC[C@H](O)CC1)c1ccc(-c2nccc3[nH]ccc23)c(F)c1 [Example 12, 3-fluoro-N-(trans-4-hydroxycyclohexyl)-4-(1H-pyrrolo[3,2-c]pyridin-4-yl)benzamide]	0.88
CC(C)(O)[C@H]1CC[C@H](NC(=O)c2ccc(-c3ncc(F)c4[nH]ccc34)cc2)CC1 [Example 13, 4-(7-fluoro-1H-pyrrolo[3,2-c]pyridin-4-yl)-N-[trans-4-(2-hydroxypropan-2-yl)cyclohexyl]benzamide]	1.4
CC(C)(O)[C@H]1CC[C@H](NC(=O)c2ccc(-c3ncc(Cl)c4[nH]ccc34)cc2)CC1 [Example 14, 4-(7-chloro-1H-pyrrolo[3,2-c]pyridin-4-yl)-N-[trans-4-(2-hydroxypropan-2-yl)cyclohexyl]benzamide]	1.2
CC(C)(O)[C@H]1CC[C@H](NC(=O)c2ccc(-c3ncc(C#N)c4[nH]ccc34)cc2)CC1 [Example 15, 4-(7-cyano-1H-pyrrolo[3,2-c]pyridin-4-yl)-N-[trans-4-(2-hydroxypropan-2-yl)cyclohexyl]benzamide]	3.4
O=C(NC12CCC(O)(CC1)CC2)c1ccc(-c2ncc(F)c3[nH]ccc23)cc1 [Example 16, 4-(7-fluoro-1H-pyrrolo[3,2-c]pyridin-4-yl)-N-(4-hydroxybicyclo[2.2.2]octan-1-yl)benzamide]	0.99
O=C(NC12CCC(O)(CC1)CC2)c1ccc(-c2ncc(Cl)c3[nH]ccc23)cc1 [Example 17, 4-(7-chloro-1H-pyrrolo[3,2-c]pyridin-4-yl)-N-(4-hydroxybicyclo[2.2.2]octan-1-yl)benzamide]	0.69
CC(C)(O)[C@H]1CC[C@H](NC(=O)c2ccc(-c3ncc(C(F)F)c4[nH]ccc34)cc2)CC1 [Example 18, 4-[7-(difluoromethyl)-1H-pyrrolo[3,2-c]pyridin-4-yl]-N-[trans-4-(2-hydroxypropan-2-yl)cyclohexyl]benzamide]	2.8
O=C(NC12CCC(O)(CC1)C2)c1ccc(-c2ncc(F)c3[nH]ccc23)cc1 [Example 19, 4-(7-fluoro-1H-pyrrolo[3,2-c]pyridin-4-yl)-N-(4-hydroxybicyclo[2.2.1]heptan-1-yl)benzamide]	1.4
O=C(N[C@H]1CC[C@H](O)CC1)c1ccc(-c2ncc(F)c3[nH]ccc23)cc1 [Example 20, 4-(7-fluoro-1H-pyrrolo[3,2-c]pyridin-4-yl)-N-(trans-4-hydroxycyclohexyl)benzamide]	0.94
C[C@]1(O)CC[C@H](NC(=O)c2ccc(-c3ncc(F)c4[nH]ccc34)cc2)CC1 [Example 21, 4-(7-fluoro-1H-pyrrolo[3,2-c]pyridin-4-yl)-N-(trans-4-hydroxy-4-methylcyclohexyl)benzamide]	1.7
CC(C)(O)CO[C@H]1CC[C@H](NC(=O)c2ccc(-c3ncc(F)c4[nH]ccc34)cc2)CC1 [Example 22, 4-(7-fluoro-1H-pyrrolo[3,2-c]pyridin-4-yl)-N-[trans-4-(2-hydroxy-2-methylpropoxy)cyclohexyl]benzamide]	2.1

The remaining lines, values ahead:

IC50 [nM]	SMILES
0.79	O=C(N[C@H]1CC[C@@H](O)CC1)c1ccc(-c2ncc(F)c3[nH]ccc23)cc1 [Example 23, 4-(7-fluoro-1H-pyrrolo[3,2-c]pyridin-4-yl)-N-(cis-4-hydroxycyclohexyl)benzamide]
0.86	O=C(NC1CCOCC1)c1ccc(-c2ncc(F)c3[nH]ccc23)cc1 [Example 24, 4-(7-fluoro-1H-pyrrolo[3,2-c]pyridin-4-yl)-N-(tetrahydropyran-4-yl)benzamide]
0.7	O=C(NC1CCS(=O)(=O)CC1)c1ccc(-c2ncc(F)c3[nH]ccc23)cc1 [Example 25, N-(1,1-dioxotetrahydrothiopyran-4-yl)-4-(7-fluoro-1H-pyrrolo[3,2-c]pyridin-4-yl)benzamide]
1.3	N#C[C@H]1CC[C@H](NC(=O)c2ccc(-c3ncc(F)c4[nH]ccc34)cc2)CC1 [Example 26, N-(trans-4-cyanocyclohexyl)-4-(7-fluoro-1H-pyrrolo[3,2-c]pyridin-4-yl)benzamide]
2.3	NC(=O)[C@H]1CC[C@H](NC(=O)c2ccc(-c3ncc(F)c4[nH]ccc34)cc2)CC1 [Example 27, N-(trans-4-carbamoylcyclohexyl)-4-(7-fluoro-1H-pyrrolo[3,2-c]pyridin-4-yl)benzamide]
1.7	O=C(NC1CCOCC1)c1ccc(-c2ncc(Cl)c3[nH]ccc23)cc1 [Example 28, 4-(7-chloro-1H-pyrrolo[3,2-c]pyridin-4-yl)-N-(tetrahydropyran-4-yl)benzamide]
0.85	O=C(NC1CCS(=O)(=O)CC1)c1ccc(-c2ncc(Cl)c3[nH]ccc23)cc1 [Example 29, 4-(7-chloro-1H-pyrrolo[3,2-c]pyridin-4-yl)-N-(1,1-dioxotetrahydrothiopyran-4-yl)benzamide]
0.68	O=C(N[C@H]1CC[C@H](O)CC1)c1ccc(-c2ncc(Cl)c3[nH]ccc23)cc1 [Example 30, 4-(7-chloro-1H-pyrrolo[3,2-c]pyridin-4-yl)-N-(trans-4-hydroxycyclohexyl)benzamide]
1	C[C@]1(O)CC[C@@H](NC(=O)c2ccc(-c3ncc(Cl)c4[nH]ccc34)cc2)CC1 [Example 31, 4-(7-chloro-1H-pyrrolo[3,2-c]pyridin-4-yl)-N-(cis-4-hydroxy-4-methylcyclohexyl)benzamide]
0.91	O=C(NC12CCC(O)(CC1)C2)c1ccc(-c2ncc(Cl)c3[nH]ccc23)cc1 [Example 32, 4-(7-chloro-1H-pyrrolo[3,2-c]pyridin-4-yl)-N-(4-hydroxybicyclo[2.2.1]heptan-1-yl)benzamide]
0.77	O=C(N[C@H]1CC[C@@H](O)CC1)c1ccc(-c2ncc(Cl)c3[nH]ccc23)cc1 [Example 33, 4-(7-chloro-1H-pyrrolo[3,2-c]pyridin-4-yl)-N-(cis-4-hydroxycyclohexyl)benzamide]
